We go through 15 compounds from patent publication US7989628B2, “2-aminoquinolines” (Hoffmann-La Roche Inc., priority 2008, dated 2011).

The target in the first data set is T1, recombinant human 5-HT5A receptor (Homo sapiens, UniProt P47898).
T1 construct: expressed in transfected cells; host or cells: HEK-EBNA (Human Embryonic Kidney-EBNA) cells, transient cDNA expression; membranes
T1 sequence (P47898 whole entry): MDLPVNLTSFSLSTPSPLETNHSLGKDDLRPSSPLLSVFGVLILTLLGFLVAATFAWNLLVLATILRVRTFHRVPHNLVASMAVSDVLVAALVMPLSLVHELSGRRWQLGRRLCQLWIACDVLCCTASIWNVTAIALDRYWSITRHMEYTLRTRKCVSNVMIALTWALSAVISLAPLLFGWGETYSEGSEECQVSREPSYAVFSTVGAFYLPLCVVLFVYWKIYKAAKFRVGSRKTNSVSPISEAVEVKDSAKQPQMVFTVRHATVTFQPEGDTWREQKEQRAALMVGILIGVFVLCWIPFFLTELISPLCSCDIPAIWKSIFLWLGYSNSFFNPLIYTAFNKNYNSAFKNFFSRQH
The data set is described as follows: [3H]LSD radioligand binding assay. The following applies: [3H]LSD approx. 1 nM; membranes from HEK-EBNA cells transiently expressing 5-HT5A; Ki by Cheng-Prussoff equation. On the procedure:
A [^3H]LSD radioligand binding assay was used to determine the affinity of the compounds for the recombinant human 5-HT5A receptor, in membranes from transiently (cDNA) expressed 5-HT5A receptors in Human Embryonic Kidney-EBNA (HEK-EBNA) cells. Assay buffer consisted of Tris (50 mM) buffer containing 1 mM EGTA, 10 mM MgCl2 (pH 7.4) and 10 μM pargyline. The binding assay was carried out in 96-well-plates in the presence of [^3H]LSD (approximately 1 nM), approximately 2 μg/well of membrane protein, and 0.5 mg of Ysi-poly-1-lysine SPA beads in a final volume of 200 μl of buffer. Non-specific binding was defined using methiothepin 2 μM. Compounds were tested at 10 concentrations. All assays were conducted in duplicate and repeated at least two times. Assay plates were incubated for 120 min at room temperature before centrifugation. Bound ligand was determined using a Packard Topcount scintillation counter. IC50 values were calculated using a non-linear curve fitting program and Ki values calculated using the Cheng-Prussoff equation.
A word on the Ki: it is the dissociation constant of the complex between target and ligand, obtained from inhibition or displacement. Regarding `CC1Cc2cccc(Nc3ccc4c(N)cccc4n3)c2O1` (stereo not shown) [Example 15, N^2-(2-Methyl-2,3-dihydro-benzofuran-7-yl)-quinoline-2,5-diamine], the Ki came to 49.4 nM. The same measure, in the same setting: the value for `COc1ccccc1CNc1ccc2c(N)cccc2n1` [Example 1, N^2-(2-Methoxy-benzyl)-quinoline-2,5-diamine] was 27.3 nM; that for `CSCCNc1cccc2nc(NCc3ccc(C)o3)ccc12` [Example 9, N^2-(5-Methyl-furan-2-ylmethyl)-N^5-(2-methylsulfanyl-ethyl)-quinoline-2,5-diamine] was 81.2 nM. The same measure, in the same setting: the value for `Nc1cccc2nc(NCc3ccccc3OC(F)(F)F)ccc12` [Example 13, N^2-(2-Trifluoromethoxy-benzyl)-quinoline-2,5-diamine] was 93.9 nM; that for `COc1ccccc1CNc1ccc2c(C(=N)NO)cccc2n1` [Example 32, N-Hydroxy-2-(2-methoxy-benzylamino)-quinoline-5-carboxamidine] was 44.7 nM.

Consider `CC1(C)Cc2cccc(Nc3ccc4c(N)cccc4n3)c2O1` [Example 16, N^2-(2,2-Dimethyl-2,3-dihydro-benzofuran-7-yl)-quinoline-2,5-diamine], for which the Ki is 44.4 nM. Same read-out and setting: under `Cc1ccc(CNc2ccc3c(NC4CCOCC4)cccc3n2)o1` [Example 7, N^2-(5-Methyl-furan-2-ylmethyl)-N^5-(tetrahydro-pyran-4-yl)-quinoline-2,5-diamine] stands 92 nM. Turning to `Cc1ccc(CNc2ccc3c(NCC[S+](C)[O-])cccc3n2)o1` (stereo not shown) [Example 10, N^5-(2-Methanesulfinyl-ethyl)-N^2-(5-methyl-furan-2-ylmethyl)-quinoline-2,5-diamine], the Ki was found to be 99.3 nM. Take `CC1Cc2cccc(Nc3ccc4c(NS(=O)(=O)N(C)C)cccc4n3)c2O1` (stereo not shown) [Example 21, N,N-dimethyl-N′-{2-[(2-methyl-2,3-dihydro-1-benzofuran-7-yl)amino]quinolin-5-yl}sulfamide]: the Ki is 101 nM. Still for that read-out and setting: the value for `Nc1cccc2nc(Nc3cccc(C4CC4)c3)ccc12` [Example 18, N^2-(3-Cyclopropyl-phenyl)-quinoline-2,5-diamine] was 71.2 nM; that for `Cc1ccc(CNc2ccc3c(N)cccc3n2)o1` [Example 2, N^2-(5-Methyl-furan-2-ylmethyl)-quinoline-2,5-diamine] was 83.8 nM.

`Cc1ccc(CNc2ccc3c(NS(=O)(=O)N(C)C)cccc3n2)o1` [Example 20, N,N-dimethyl-N′-(2-{[(5-methyl-2-furyl)methyl]amino}quinolin-5-yl)sulfamide]: the Ki worked out at 60.4 nM.

Take `Cc1ccc(CNc2ccc3c(CCCCO)cccc3n2)o1` [Example 26, 4-{2-[(5-Methyl-furan-2-ylmethyl)-amino]-quinolin-5-yl}-butan-1-ol]: the Ki is 61.8 nM. Same read-out and setting: the value for `COc1ccccc1CNc1ccc2c(OCCSC)cccc2n1` [Example 30, (2-Methoxy-benzyl)-[5-(2-methylsulfanyl-ethoxy)-quinolin-2-yl]-amine] was 219 nM; that for `Cc1cc2cccc(Nc3ccc4c(N)cccc4n3)c2o1` [Example 14, N^2-(2-Methyl-benzofuran-7-yl)-quinoline-2,5-diamine] was 112 nM.

Test system in the next data set: not given
Experiment: not given
Settings: not given
As a reminder, the melting point is the temperature of the solid-liquid transition. `COc1ccccc1CNc1ccc2c(C(=N)NO)cccc2n1` [Example 32, N-Hydroxy-2-(2-methoxy-benzylamino)-quinoline-5-carboxamidine] came in with a melting point of 161 °C.
